Test results published in patent publication US10131652B2, “Pyrimidinyloxy benzene derivatives as herbicides” (E. I. DU PONT DE NEMOURS AND COMPANY, priority 2014, dated 2018).

Assays:
Assay type in all cases: in vivo
[1] = tested on: barnyardgrass (Echinochloa crus-galli); assay: Test B pre-/postemergence plant response
How it was run: (§1)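 Visual injury rating, 0 (no effect) to 100 (complete control), vs untreated controls after ~10 d greenhouse. Pre: directed soil spray after planting in loam/sand. Post: plants 2–10 cm, 1–2 leaf stage. Compound in non-phytotoxic solvent plus surfactant.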

[2] = tested on: corn (Zea mays); assay: Test B pre-/postemergence plant response
How it was run: as §1

[3] = tested on: Italian ryegrass (Lolium multiflorum); assay: Test B pre-/postemergence plant response
How it was run: as §1

[4] = tested on: kochia (Kochia scoparia); assay: Test B pre-/postemergence plant response
How it was run: as §1

[5] = tested on: wheat (Triticum aestivum); assay: Test B pre-/postemergence plant response
How it was run: as §1

[6] = tested on: ragweed (common ragweed, Ambrosia elatior); assay: Test B pre-/postemergence plant response
How it was run: as §1

[7] = tested on: pigweed (Amaranthus retroflexus); assay: Test B pre-/postemergence plant response
How it was run: as §1

[8] = tested on: giant foxtail (Setaria faberii); assay: Test B pre-/postemergence plant response
How it was run: as §1

[9] = tested on: blackgrass (Alopecurus myosuroides); assay: Test B postemergence plant response
How it was run: (§2)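 Plants grown in pots of loam soil–sand blend were sprayed postemergence with formulated test chemicals at 2 to 10 cm height, one- to two-leaf stage. After about 10 days in a greenhouse, injury was visually rated against untreated controls on a 0 to 100 scale (0 no effect, 100 complete control).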

[10] = tested on: galium (catchweed bedstraw, Galium aparine); assay: Test B postemergence plant response
How it was run: as §2

[11] = tested on: barnyardgrass (Echinochloa crus-galli); assay: Test C flooded paddy test plant response; conditions: Flood, 250 g ai/ha; scale of 0 to 100 where 0 is no effect and 100 is complete control; 13 to 15 days
How it was run: (§3)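 Flooded-pot format, 3 cm water over soil maintained for the test duration; test compounds dispensed into the water at the 2-leaf stage. Greenhouse holding 13 to 15 days. Plants evaluated visually relative to untreated controls, 0 meaning no effect and 100 complete control.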

[12] = tested on: ducksalad (Heteranthera limosa); assay: Test C flooded paddy test plant response; conditions: Flood, 250 g ai/ha; scale of 0 to 100 where 0 is no effect and 100 is complete control; 13 to 15 days
How it was run: as §3

[13] = tested on: rice (Oryza sativa); assay: Test C flooded paddy test plant response; conditions: Flood, 250 g ai/ha; scale of 0 to 100 where 0 is no effect and 100 is complete control; 13 to 15 days
How it was run: as §3

[14] = tested on: small-flower umbrella sedge (Cyperus difformis); assay: Test C flooded paddy test plant response; conditions: Flood, 250 g ai/ha; scale of 0 to 100 where 0 is no effect and 100 is complete control; 13 to 15 days
How it was run: as §3

[15] = 31 g ai/ha, Postemergence, 0 to 100 scale, 0 no effect, 100 complete control
[16] = 125 g ai/ha, postemergence, 0 to 100 scale, 0 no effect, 100 complete control
[17] = Preemergence, 31 g ai/ha, 0 to 100 scale (0 no effect, 100 complete control)
[18] = Preemergence, 125 g ai/ha, 0 to 100 scale where 0 is no effect and 100 is complete control
[19] = 31 g ai/ha, Preemergence, 0 to 100 scale where 0 is no effect and 100 is complete control
[20] = Postemergence, 31 g ai/ha, 0 to 100 scale (0 no effect, 100 complete control)
[21] = Preemergence, 125 g ai/ha, 0 to 100 scale (0 no effect, 100 complete control)

CCn1nc(C(F)(F)F)cc1-c1c(C#N)cccc1Oc1ncc(Cl)cn1 [Compound 89]
Plant response rating, Barnyardgrass [1, 15]: 10
Plant response rating, Barnyardgrass [1, 16]: 30
Barnyardgrass plant response rating [1, 17]: 10
Plant response rating, Barnyardgrass [1, 18]: 70
Plant response rating, Corn [2, 15]: 10
Plant response rating, Corn [2, 16]: 30
Plant response rating, Ryegrass, Italian [3, 15]: 0
Plant response rating, Ryegrass, Italian [3, 16]: 0
Ryegrass, Italian plant response rating [3, 17]: 0
Plant response rating, Ryegrass, Italian [3, 18]: 0
Plant response rating, Kochia [4, 15]: 50
Plant response rating, Kochia [4, 16]: 70
Kochia plant response rating [4, 17]: 0
Plant response rating, Kochia [4, 18]: 0
Plant response rating, Wheat [5, 15]: 0
Plant response rating, Wheat [5, 16]: 0
Plant response rating, Ragweed [6, 15]: 10
Plant response rating, Ragweed [6, 16]: 10
Ragweed plant response rating [6, 17]: 0
Plant response rating, Ragweed [6, 18]: 0
Plant response rating, Pigweed [7, 15]: 60
Plant response rating, Pigweed [7, 16]: 90
Pigweed plant response rating [7, 17]: 100
Plant response rating, Pigweed [7, 18]: 100
Plant response rating, Foxtail, Giant [8, 15]: 10
Plant response rating, Foxtail, Giant [8, 16]: 40
Foxtail, Giant plant response rating [8, 17]: 40
Plant response rating, Foxtail, Giant [8, 18]: 90
Plant response rating, Blackgrass [9, 15]: 10
Plant response rating, Blackgrass [9, 16]: 20
Plant response rating, Galium [10, 15]: 10
Plant response rating, Galium [10, 16]: 50
Barnyardgrass plant response rating [11]: 0
Ducksalad plant response rating [12]: 30
Rice plant response rating [13]: 0
Sedge, Umbrella plant response rating [14]: 80

Cn1nc(-c2ccccc2Oc2ncc(Cl)cn2)cc1C(F)(F)F [Compound 237]
Plant response rating, Barnyardgrass [1, 19]: 0
Plant response rating, Barnyardgrass [1, 16]: 0
Plant response rating, Barnyardgrass [1, 20]: 0
Barnyardgrass plant response rating [1, 21]: 0
Plant response rating, Corn [2, 16]: 0
Plant response rating, Corn [2, 20]: 0
Plant response rating, Ryegrass, Italian [3, 19]: 0
Plant response rating, Ryegrass, Italian [3, 16]: 0
Plant response rating, Ryegrass, Italian [3, 20]: 0
Ryegrass, Italian plant response rating [3, 21]: 0
Plant response rating, Kochia [4, 19]: 0
Plant response rating, Kochia [4, 16]: 0
Plant response rating, Kochia [4, 20]: 0
Kochia plant response rating [4, 21]: 0
Plant response rating, Wheat [5, 16]: 0
Plant response rating, Wheat [5, 20]: 0
Plant response rating, Ragweed [6, 19]: 0
Plant response rating, Ragweed [6, 16]: 0
Plant response rating, Ragweed [6, 20]: 0
Ragweed plant response rating [6, 21]: 0
Plant response rating, Pigweed [7, 19]: 0
Plant response rating, Pigweed [7, 16]: 0
Plant response rating, Pigweed [7, 20]: 0
Pigweed plant response rating [7, 21]: 0
Plant response rating, Foxtail, Giant [8, 19]: 0
Plant response rating, Foxtail, Giant [8, 16]: 0
Plant response rating, Foxtail, Giant [8, 20]: 0
Foxtail, Giant plant response rating [8, 21]: 0
Plant response rating, Blackgrass [9, 16]: 0
Plant response rating, Blackgrass [9, 20]: 0
Plant response rating, Galium [10, 16]: 0
Plant response rating, Galium [10, 20]: 0
Barnyardgrass plant response rating [11]: 0
Ducksalad plant response rating [12]: 0
Rice plant response rating [13]: 0
Sedge, Umbrella plant response rating [14]: 0

CCOC(=O)c1cc(-c2ccccc2Oc2ncc(Cl)cn2)on1 [Compound 225]
Plant response rating, Barnyardgrass [1, 19]: 0
Plant response rating, Barnyardgrass [1, 16]: 0
Plant response rating, Barnyardgrass [1, 20]: 0
Barnyardgrass plant response rating [1, 21]: 0
Plant response rating, Corn [2, 16]: 0
Plant response rating, Corn [2, 20]: 0
Plant response rating, Ryegrass, Italian [3, 19]: 0
Plant response rating, Ryegrass, Italian [3, 16]: 0
Plant response rating, Ryegrass, Italian [3, 20]: 0
Ryegrass, Italian plant response rating [3, 21]: 0
Plant response rating, Kochia [4, 19]: 0
Plant response rating, Kochia [4, 16]: 0
Plant response rating, Kochia [4, 20]: 0
Kochia plant response rating [4, 21]: 0
Plant response rating, Wheat [5, 16]: 0
Plant response rating, Wheat [5, 20]: 0
Plant response rating, Ragweed [6, 19]: 0
Plant response rating, Ragweed [6, 16]: 0
Plant response rating, Ragweed [6, 20]: 0
Ragweed plant response rating [6, 21]: 0
Plant response rating, Pigweed [7, 19]: 0
Plant response rating, Pigweed [7, 16]: 0
Plant response rating, Pigweed [7, 20]: 0
Pigweed plant response rating [7, 21]: 0
Plant response rating, Foxtail, Giant [8, 19]: 0
Plant response rating, Foxtail, Giant [8, 16]: 0
Plant response rating, Foxtail, Giant [8, 20]: 0
Foxtail, Giant plant response rating [8, 21]: 0
Plant response rating, Blackgrass [9, 16]: 0
Plant response rating, Blackgrass [9, 20]: 0
Plant response rating, Galium [10, 16]: 0
Plant response rating, Galium [10, 20]: 0
Barnyardgrass plant response rating [11]: 0
Ducksalad plant response rating [12]: 0
Rice plant response rating [13]: 0
Sedge, Umbrella plant response rating [14]: 0
